One data set deals with Staphylococcus aureus. Description: Antibacterial activity against Staphylococcus aureus assessed as inhibition of bacterial growth at 100 uM. The format is functional, organism-based.
Data set [1] concerns RAW264.7. Description: Anti-inflammatory activity against LPS-induced mouse RAW264.7 cells assessed as inhibition of NO production at 100 uM. The format is functional, cell-based.
The subject of a further data set is Escherichia coli. Description: Antibacterial activity against Escherichia coli assessed as inhibition of bacterial growth at 100 uM. The format is functional, organism-based.
The test system of a further data set is Bacillus subtilis. The data set is described as follows: Antibacterial activity against Bacillus subtilis assessed as inhibition of bacterial growth at 100 uM. The format is functional, organism-based.
Another data set relates to Pseudomonas aeruginosa. The data set is described as follows: Antibacterial activity against Pseudomonas aeruginosa assessed as inhibition of bacterial growth at 100 uM. The format is functional, organism-based.
For data set [2], the system named is RAW264.7. Description: Pro-inflamamtory activity in LPS-induced mouse RAW264.7 cells assessed as increase in NO production at 100 uM. The format is functional, cell-based.
Data set [3] relates to RAW264.7. Description: Anti-inflammatory activity against LPS-induced mouse RAW264.7 cells assessed as inhibition of TNF-alpha production at 100 uM by ELISA. The format is functional. On the technique in general: ELISA stands for enzyme-linked immunosorbent assay.
Data set [4] is described as follows: Stability of the compound in dichloromethane measured after 2 months. The format is physicochemical. As to conditions: 1460 h.
The test system of data set [5] is RAW264.7. Description: Cytotoxicity against mouse RAW264.7 cells assessed as effect on cell viability at 100 uM. The format is toxicity, cell-based. The following applies: raw264.7, 100 µM.
The test system of data set [6] is RAW264.7. The data set is described as follows: Anti-inflammatory activity against LPS-induced mouse RAW264.7 cells assessed as inhibition of IL-1 beta production at 100 uM by ELISA. The format is functional.
Data set [7] has as its system RAW264.7. Description: Anti-inflammatory activity against LPS-induced mouse RAW264.7 cells assessed as inhibition of NO production. The format is functional, cell-based.

A word on the inhibition: it is the drop in the measured response relative to a control, in per cent. In general, pIC50 refers to −log10 of the IC50, conventionally taken in molar units.

pIC50: −log10 of the molar value. Activity calls are given as the source filed them. The rule behind the calls is not given here. Bounds are passed on as bounds.

For the compound `C/C=C1/C2=CCCN3C(=O)O[C@H]([C@H]1OS(C)(=O)=O)[C@H]23`, the result with Staphylococcus aureus, in the data set on Escherichia coli, in the data set with Bacillus subtilis and with Pseudomonas aeruginosa was inactive. In the data set with RAW264.7 [1], the result was Active.

As to `C/C=C1/C2=CCCN3C(=O)O[C@H]([C@H]1OC(=O)C(C)(C)C)[C@H]23`, the outcome in the data set with Staphylococcus aureus, in the data set with Escherichia coli, in the data set with Bacillus subtilis and in the data set with Pseudomonas aeruginosa was inactive. In addition, the result in the data set on RAW264.7 [1] was Active.

As for `C/C=C1/C2=CCCN3C(=O)O[C@H]([C@H]1OC(=O)/C=C/c1ccccc1)[C@H]23`, the outcome with Staphylococcus aureus, with Escherichia coli, with Bacillus subtilis and in the data set on Pseudomonas aeruginosa was inactive. The outcome with RAW264.7 [1] was Active.

On to `C/C=C1/C2=CCCN3C(=O)O[C@H]([C@H]1OC(=O)C(C)C)[C@H]23`, for which the outcome with Staphylococcus aureus, in the data set with RAW264.7 [1], in the data set on Escherichia coli, in the data set with Bacillus subtilis and in the data set on Pseudomonas aeruginosa was inactive.

`C/C=C1/C2=CCCN3C(=O)O[C@H]([C@H]1OC(=O)c1ccccc1)[C@H]23`: the outcome in the data set with Staphylococcus aureus, in the data set on Escherichia coli, in the data set on Bacillus subtilis and in the data set on Pseudomonas aeruginosa was inactive. For the same compound, in the data set on RAW264.7 [1], the result was Active.

`C/C=C1/C2=CCCN3C(=O)O[C@H]([C@H]1O)[C@H]23`: in the data set on RAW264.7 [2], the result was Active. The outcome in the data set with Staphylococcus aureus, in the data set on Escherichia coli, in the data set on Bacillus subtilis and with Pseudomonas aeruginosa was inactive.

In the case of `C/C=C1/C2=CCCN3C(=O)O[C@H]([C@@H]1Cl)[C@H]23`, the outcome in the data set on Staphylococcus aureus, in the data set with Escherichia coli, in the data set on Bacillus subtilis and in the data set on Pseudomonas aeruginosa was inactive.

Consider `C/C=C1/C2=CCCN3C(=O)O[C@H]([C@H]1OC(=O)CCCCCCCCC)[C@H]23`, for which, in the data set on RAW264.7 [2], the result was Active. Besides, the result with Staphylococcus aureus, in the data set with RAW264.7 [1], in the data set with Escherichia coli, with Bacillus subtilis and in the data set with Pseudomonas aeruginosa was inactive.

In the case of `C/C=C1/C2=CCCN3C(=O)O[C@H]([C@H]1OC(=O)CCCCCCCCCCC)[C@H]23`, the result in the data set on Staphylococcus aureus, in the data set on RAW264.7 [1], in the data set on Escherichia coli, in the data set with Bacillus subtilis and in the data set on Pseudomonas aeruginosa was inactive.

As to `C/C=C1/C2=CCCN3C(=O)O[C@H]([C@H]1OC(C)=O)[C@H]23`, the result with Staphylococcus aureus, in the data set on RAW264.7 [1], in the data set with Escherichia coli, in the data set with Bacillus subtilis and with Pseudomonas aeruginosa was inactive.

In the case of `C/C=C1/C2=CCCN3C(=O)O[C@H]([C@H]1OC(=O)CCC)[C@H]23`, the outcome with Staphylococcus aureus, in the data set on RAW264.7 [1], in the data set on Escherichia coli, in the data set on Bacillus subtilis and with Pseudomonas aeruginosa was inactive.

As to `C/C=C1/C2=CCCN3C(=O)O[C@H]([C@H]1OS(=O)(=O)CCC)[C@H]23`, the result in the data set with Staphylococcus aureus, with Escherichia coli, with Bacillus subtilis and with Pseudomonas aeruginosa was inactive. Further, the outcome in the data set on RAW264.7 [1] was Active.

Turning to `C/C=C1/C2=CCCN3C(=O)O[C@H]([C@H]1OC(=O)C1CCCCC1)[C@H]23`, the result in the data set on Staphylococcus aureus, with Escherichia coli, in the data set with Bacillus subtilis and in the data set with Pseudomonas aeruginosa was inactive. Also, the outcome in the data set on RAW264.7 [1] was Active.

Regarding `C/C=C1/C2=CCCN3C(=O)O[C@H]([C@H]1OC(=O)CC)[C@H]23`, the result in the data set on Staphylococcus aureus, with RAW264.7 [1], in the data set on Escherichia coli, in the data set on Bacillus subtilis and in the data set on Pseudomonas aeruginosa was inactive.

As for `C/C=C1/C2=CCCN3C(=O)O[C@H]([C@H]1OC(=O)c1ccc(C)cc1)[C@H]23`, the outcome with Staphylococcus aureus, with Escherichia coli, in the data set with Bacillus subtilis and in the data set on Pseudomonas aeruginosa was inactive. Besides, in the data set on RAW264.7 [1], the result was Active.

As for `C/C=C1/C2=CCCN3C(=O)O[C@H]([C@H]1OC(=O)CCCC)[C@H]23`, the outcome with Staphylococcus aureus, with Escherichia coli, in the data set on Bacillus subtilis and in the data set on Pseudomonas aeruginosa was inactive. The figures for the inhibition at 100 µM in the data set with RAW264.7 [3] and in the data set on RAW264.7 [6] were at most 60% and over 90%, respectively. In addition, the result with RAW264.7 [1] was Active. The Stability entry in data set [4] is “Stable”. In addition, the Activity result was “Non-toxic” with RAW264.7 [5] and “Dose-dependent-effect” with RAW264.7 [7]. In the data set with RAW264.7 [7], the pIC50 is 5.06.

Source of the values: ChEMBL document CHEMBL6177946, “Design, synthesis and biological evaluation of Streptazolin analogs as anti-inflammatory agents” (Bioorg Med Chem Lett, 2025).
